In patent US20230139328A1, “DOSAGE FORMS FOR IMPROVING ORGAN TRANSPLANTATION, GRAFT VERSUS HOST DISEASE AND STEM CELLS TRANSPLANTS” (Aphios Corporation, priority 2020, published 2023):

Tested on: neutrophil migration across HUVEC
Assay: Neutrophil transendothelial migration (TEM) restoration studies with PKC inhibitors in HUVEC
Assay type: cell-based, human
Conditions: for restoration of PMN TEM in response to LTB4 after PKC activator treatment: PKC inhibitor 30 min (1, 10, 100 nM) then 100 nM Bryostatin-1 1 h
Description: HUVEC were pretreated with G0-6983, a PKC inhibitor with dose dependent specificities for classical vs. novel PKC isoforms for 30 minutes prior to addition of Bryostatin-1 (100 nM) to block neutrophil migration. […] Neutrophil migration towards 100 nM LTB4 was initiated by adding LTB4 to the lower well.
Neutrophil Transendothelial Migration (TEM) Restoration Studies: HUVECs were pretreated with Go-6983 (1, 10, 100 nM), or Go-6976 (1, 10,100 nM) for 30 minutes, then spiked with 100 nM Bryostatin-1 for 1 hour. HUVECs previously nucleofected with PKC-δ, -ε, or control siRNA were just treated in Bryostatin-1 for 1 hour. HUVECs were washed three times and placed in a new plate containing either 500 IL 100 nM LTB4, or HBSS alone for control. Neutrophils were allowed to migrate for 3 h at 37° C. Migration was stopped by removing the inserts and migration was measured using the MPO assay.
Myeloperoxidase Assay: Neutrophil migration was measured using myeloperoxidase (MPO) analysis. Cell culture inserts were first removed, and plates were spun at 1,500 RPM for 5 min. The supernatant was removed, and MPO activity was measured using TMB/peroxide as chromogen. The reaction was stopped with sulfuric acid and absorbance was read at 450 nm using a microplate reader. All experiments were performed n=6. Data was expressed as “% neutrophil migration”, which allowed cumulative statistical analysis to be done and account for unpreventable batch-to-batch variations.

Compound	restoration of PMN TEM in response to LTB4 after PKC activator treatment	effect of inhibitor pretreatment on Bryostatin-1 mediated reduction in migration towards LTB4, 1 nM (1 nM inhibitor 30 min before 100 nM Bryostatin-1)	effect of inhibitor pretreatment on Bryostatin-1 mediated reduction in migration towards LTB4, 10 or 100 nM (10 or 100 nM inhibitor 30 min before 100 nM Bryostatin-1)	restoration of PMN TEM in response to LTB4 after PKC activator treatment (listed as G0-6983)
CN(C)CCCn1cc(C2=C(c3c[nH]c4ccccc34)C(=O)NC2=O)c2ccccc21 [GF10923X]	did not restore PMN TEM	–	–	–
Cn1c2ccccc2c2c3c(c4c5ccccc5n(CCC#N)c4c21)CNC3=O [GO-6976]	did not restore PMN TEM	–	–	–
CC(=O)c1c(O)c(C)c(O)c(Cc2c(O)c3c(c(C(=O)/C=C/c4ccccc4)c2O)OC(C)(C)C=C3)c1O [Rottlerin]	did not restore PMN TEM	–	–	–
CN[C@@H]1C[C@H]2O[C@@](C)([C@@H]1OC)n1c3ccccc3c3c4c(c5c6ccccc6n2c5c31)C(=O)NC4 [staurosporine]	did not restore PMN TEM	–	–	–
COc1ccc2c(c1)c(C1=C(c3c[nH]c4ccccc34)C(=O)NC1=O)cn2CCCN(C)C [Go-6983]	dose dependently restored neutrophil migration	but not by 1 nM G06983	prevented	dose dependently reversed
